Values quoted from earlier work as cited in patent US20140037713A1, “TRANSDERMAL COMPOSITIONS FOR ANTI-CHOLINERGIC AGENTS” (ANTARES PHARMA IPL, AG, priority 2012, published 2014).

Conditions: Ref. 2

- Dissociation const. (pKa): 8.04
SMILES: CCN(CC)CC#CCOC(=O)C(O)(c1ccccc1)C1CCCCC1 (racemic) [Oxybutynin, d,l (racemic) 4-diethylamino-2-butynyl phenylcyclohexylglycolate]
